Legend:
[1] = biological target: T1, Tyrosine-protein phosphatase non-receptor type 1 (Homo sapiens, UniProt P18031); experiment: Inhibition of recombinant human PTP1B catalytic domain expressed in Escherichia coli BL21-CodonPlus (DE3) using pNPP as substrate measured for 2 mins
T1 sequence (P18031 whole entry): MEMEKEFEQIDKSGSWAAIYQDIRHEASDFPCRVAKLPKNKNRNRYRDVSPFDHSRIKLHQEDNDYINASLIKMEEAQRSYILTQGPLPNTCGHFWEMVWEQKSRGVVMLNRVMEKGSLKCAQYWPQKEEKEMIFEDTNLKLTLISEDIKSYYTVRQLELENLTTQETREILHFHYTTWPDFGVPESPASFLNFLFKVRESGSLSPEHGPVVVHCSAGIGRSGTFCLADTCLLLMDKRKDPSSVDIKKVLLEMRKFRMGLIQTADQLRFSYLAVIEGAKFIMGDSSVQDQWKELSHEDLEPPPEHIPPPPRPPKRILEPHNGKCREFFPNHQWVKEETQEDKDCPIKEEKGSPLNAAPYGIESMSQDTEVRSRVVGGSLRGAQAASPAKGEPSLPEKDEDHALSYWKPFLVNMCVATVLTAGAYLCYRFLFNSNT

[2] = biological target: T2, Tyrosine-protein phosphatase non-receptor type 2 (Homo sapiens) (UniProt P17706); experiment: Inhibition of GST-tagged human […] expressed in Escherichia coli at 20 ug/ml using pNPP as substrate relative to control
T2 sequence (whole entry): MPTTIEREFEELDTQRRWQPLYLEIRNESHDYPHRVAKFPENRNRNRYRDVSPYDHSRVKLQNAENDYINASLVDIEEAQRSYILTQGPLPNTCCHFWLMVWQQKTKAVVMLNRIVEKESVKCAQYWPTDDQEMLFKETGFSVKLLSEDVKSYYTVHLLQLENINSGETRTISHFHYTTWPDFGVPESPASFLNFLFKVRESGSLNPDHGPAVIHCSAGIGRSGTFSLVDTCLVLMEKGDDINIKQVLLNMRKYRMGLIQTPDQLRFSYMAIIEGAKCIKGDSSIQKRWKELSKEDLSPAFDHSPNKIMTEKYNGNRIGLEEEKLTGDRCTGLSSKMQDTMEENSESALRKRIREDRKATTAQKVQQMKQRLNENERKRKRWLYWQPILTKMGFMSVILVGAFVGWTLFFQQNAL

[3] = biological target: T3, Tyrosine-protein phosphatase non-receptor type 6 (Homo sapiens, UniProt P29350); experiment: Inhibition of GST-tagged human SHP1 expressed in Escherichia coli at 20 ug/ml using pNPP as substrate relative to control
T3 sequence (P29350 whole entry): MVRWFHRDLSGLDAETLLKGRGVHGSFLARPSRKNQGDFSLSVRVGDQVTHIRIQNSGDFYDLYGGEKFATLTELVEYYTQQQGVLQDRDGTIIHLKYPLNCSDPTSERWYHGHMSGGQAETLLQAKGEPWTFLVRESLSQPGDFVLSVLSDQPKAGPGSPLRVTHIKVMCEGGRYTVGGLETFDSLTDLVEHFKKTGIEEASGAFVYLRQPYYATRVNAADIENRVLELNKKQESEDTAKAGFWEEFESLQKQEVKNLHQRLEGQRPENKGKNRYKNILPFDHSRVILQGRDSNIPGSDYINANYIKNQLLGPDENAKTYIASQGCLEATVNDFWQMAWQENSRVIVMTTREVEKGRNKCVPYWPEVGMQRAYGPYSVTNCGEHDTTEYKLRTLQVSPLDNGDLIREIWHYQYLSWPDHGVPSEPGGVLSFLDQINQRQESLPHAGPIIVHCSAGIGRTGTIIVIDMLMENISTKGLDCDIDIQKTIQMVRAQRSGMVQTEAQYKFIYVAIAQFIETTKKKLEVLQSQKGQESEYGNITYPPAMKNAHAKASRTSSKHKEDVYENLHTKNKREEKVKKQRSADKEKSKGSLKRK

[4] = biological target: T3, Tyrosine-protein phosphatase non-receptor type 6; experiment: Inhibition of GST-tagged human SHP1 expressed in Escherichia coli using pNPP as substrate
[5] = biological target: Receptor-type tyrosine-protein phosphatase F (Homo sapiens) (UniProt P10586); experiment: Inhibition of GST-tagged human LAR expressed in Escherichia coli at 20 ug/ml using pNPP as substrate relative to control
Receptor-type tyrosine-protein phosphatase F (Homo sapiens), sequence (P10586 whole entry): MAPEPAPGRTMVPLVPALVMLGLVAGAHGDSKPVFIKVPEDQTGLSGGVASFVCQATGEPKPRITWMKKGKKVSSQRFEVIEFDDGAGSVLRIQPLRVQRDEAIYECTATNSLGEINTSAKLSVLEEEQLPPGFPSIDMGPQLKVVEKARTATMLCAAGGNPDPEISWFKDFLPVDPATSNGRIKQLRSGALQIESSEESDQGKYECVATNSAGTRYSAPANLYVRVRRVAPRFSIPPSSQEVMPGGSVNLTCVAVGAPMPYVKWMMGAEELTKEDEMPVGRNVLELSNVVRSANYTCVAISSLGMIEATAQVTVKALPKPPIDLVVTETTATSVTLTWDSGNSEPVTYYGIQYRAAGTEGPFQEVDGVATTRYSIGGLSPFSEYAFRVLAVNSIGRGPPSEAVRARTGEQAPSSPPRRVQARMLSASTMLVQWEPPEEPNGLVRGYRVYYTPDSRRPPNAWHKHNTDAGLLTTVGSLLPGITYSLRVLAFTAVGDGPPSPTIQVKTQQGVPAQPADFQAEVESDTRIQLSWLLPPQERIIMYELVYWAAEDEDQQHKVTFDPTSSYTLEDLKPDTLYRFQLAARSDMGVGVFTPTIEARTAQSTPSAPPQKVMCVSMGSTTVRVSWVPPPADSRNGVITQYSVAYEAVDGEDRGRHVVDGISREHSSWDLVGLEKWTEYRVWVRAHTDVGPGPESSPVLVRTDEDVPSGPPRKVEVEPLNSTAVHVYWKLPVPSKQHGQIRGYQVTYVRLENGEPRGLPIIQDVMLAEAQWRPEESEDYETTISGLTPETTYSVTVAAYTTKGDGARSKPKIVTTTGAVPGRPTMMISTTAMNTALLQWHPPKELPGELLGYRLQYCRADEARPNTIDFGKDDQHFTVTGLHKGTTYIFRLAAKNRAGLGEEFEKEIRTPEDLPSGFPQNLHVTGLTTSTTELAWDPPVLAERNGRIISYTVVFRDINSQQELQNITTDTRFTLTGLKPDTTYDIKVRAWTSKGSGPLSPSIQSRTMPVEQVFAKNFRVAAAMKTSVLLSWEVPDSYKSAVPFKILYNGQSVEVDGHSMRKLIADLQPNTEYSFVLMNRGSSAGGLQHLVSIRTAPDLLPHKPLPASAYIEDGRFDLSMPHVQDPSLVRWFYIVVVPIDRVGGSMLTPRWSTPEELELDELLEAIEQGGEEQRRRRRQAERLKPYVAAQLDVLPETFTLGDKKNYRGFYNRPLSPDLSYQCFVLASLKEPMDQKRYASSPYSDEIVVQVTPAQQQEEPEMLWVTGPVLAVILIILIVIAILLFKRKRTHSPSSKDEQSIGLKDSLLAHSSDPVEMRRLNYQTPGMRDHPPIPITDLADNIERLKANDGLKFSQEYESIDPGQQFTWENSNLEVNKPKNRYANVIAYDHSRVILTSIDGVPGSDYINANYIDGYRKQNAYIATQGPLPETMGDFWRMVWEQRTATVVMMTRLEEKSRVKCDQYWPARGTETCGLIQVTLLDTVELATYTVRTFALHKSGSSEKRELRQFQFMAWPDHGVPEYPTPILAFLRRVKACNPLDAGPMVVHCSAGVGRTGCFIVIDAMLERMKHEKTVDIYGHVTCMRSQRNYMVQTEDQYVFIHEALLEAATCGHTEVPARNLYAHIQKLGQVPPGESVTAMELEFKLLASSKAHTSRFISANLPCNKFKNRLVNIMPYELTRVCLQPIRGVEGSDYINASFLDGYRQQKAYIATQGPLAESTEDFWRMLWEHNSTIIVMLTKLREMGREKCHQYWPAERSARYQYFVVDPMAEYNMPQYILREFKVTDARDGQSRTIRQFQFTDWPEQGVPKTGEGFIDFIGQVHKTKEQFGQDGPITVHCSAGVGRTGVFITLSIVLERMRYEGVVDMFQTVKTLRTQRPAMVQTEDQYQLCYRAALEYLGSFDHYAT

[6] = biological target: T4, Tyrosine-protein phosphatase non-receptor type 2 (Homo sapiens, UniProt P17706); experiment: Inhibition of GST-tagged human […] expressed in Escherichia coli using pNPP as substrate
T4 sequence (P17706 whole entry): T2 sequence (whole entry)

SMILES	IC50 [1]	other results
COC(=O)C[C@H]1Oc2c(OC)cccc2[C@@H]2O[C@@]3(C(=O)N(Cc4ccccc4)c4ccccc43)[C@@H](c3ccc(Br)cc3)[C@]12[N+](=O)[O-]	5.43 µM	
O=C1C[C@H]2Oc3ccc(Cl)cc3[C@@H]3O[C@@]4(C(=O)N(Cc5ccccc5)c5ccccc54)[C@@H](c4ccc(Br)cc4)[C@]23N1	6.04 µM	
COc1ccc2c(c1)[C@@H]1O[C@@]3(C(=O)N(Cc4ccccc4)c4ccccc43)[C@@H](c3ccc(Br)cc3)[C@@]13NC(=O)C[C@H]3O2	6.48 µM	
Cc1ccc([C@H]2[C@]34NC(=O)C[C@H]3Oc3ccc(C)cc3[C@@H]4O[C@@]23C(=O)N(Cc2ccccc2)c2ccccc23)cc1	4.72 µM	inhibition [2]: 19.4%; inhibition [3]: 96.1%; IC50 [4]: 10.6 µM; inhibition [5]: 6.72%; IC50 [6]: 35.8 µM
COC(=O)C[C@H]1Oc2ccc(OC)cc2[C@@H]2O[C@@]3(C(=O)N(Cc4ccccc4)c4ccccc43)[C@@H](c3ccc(Br)cc3)[C@]12[N+](=O)[O-]	6.67 µM	
COc1ccc2c(c1)[C@@H]1O[C@@]3(C(=O)N(Cc4ccccc4)c4ccccc43)[C@@H](c3ccc(C)cc3)[C@@]13NC(=O)C[C@H]3O2	7.98 µM	
COc1cccc2c1O[C@@H]1CC(=O)N[C@]13[C@H]2O[C@@]1(C(=O)N(Cc2ccccc2)c2ccccc21)[C@H]3c1ccc(Br)cc1	6.19 µM	
COC(=O)C[C@H]1Oc2c(OC)cccc2[C@@H]2O[C@@]3(C(=O)N(Cc4ccccc4)c4ccccc43)[C@@H](c3ccc(C)cc3)[C@]12[N+](=O)[O-]	8.2 µM	
COc1ccccc1[C@H]1[C@]23NC(=O)C[C@H]2Oc2c(OC)cccc2[C@@H]3O[C@@]12C(=O)N(Cc1ccccc1)c1ccccc12	10 µM	
Cc1ccc([C@H]2[C@]34NC(=O)C[C@H]3Oc3ccc(Cl)cc3[C@@H]4O[C@@]23C(=O)N(Cc2ccccc2)c2ccccc23)cc1	5.61 µM	
COC(=O)C[C@H]1Oc2ccc(OC)cc2[C@@H]2O[C@@]3(C(=O)N(Cc4ccccc4)c4ccccc43)[C@@H](c3ccc(C)cc3)[C@]12[N+](=O)[O-]	4.53 µM	inhibition [2]: 10.3%; inhibition [3]: 31.1%; inhibition [5]: 15.5%
COC(=O)C[C@H]1Oc2ccc(Cl)cc2[C@@H]2O[C@@]3(C(=O)N(Cc4ccccc4)c4ccccc43)[C@@H](c3ccc(Br)cc3)[C@]12[N+](=O)[O-]	4.65 µM	

More lines, in order of falling IC50 [1], values ahead:

IC50 [1]	SMILES	other results
13.2 µM	COC(=O)/C=C/Oc1ccc(OC)cc1[C@@H]1O[C@@]2(C(=O)N(Cc3ccccc3)c3ccccc32)[C@@H](c2ccc(C)cc2)[C@@H]1[N+](=O)[O-]	
10.3 µM	Cc1ccc2c(c1)[C@@H]1O[C@@]3(C(=O)N(Cc4ccccc4)c4ccccc43)[C@@H](c3ccccc3)[C@@]13NC(=O)C[C@H]3O2	
7.07 µM	COc1cccc2c1O[C@@H]1CC(=O)N[C@]13[C@H]2O[C@@]1(C(=O)N(Cc2ccccc2)c2ccccc21)[C@H]3c1ccc(C)cc1	
6.8 µM	COC(=O)/C=C/Oc1c(OC)cccc1[C@@H]1O[C@@]2(C(=O)N(Cc3ccccc3)c3ccccc32)[C@@H](c2ccc(C)cc2)[C@@H]1[N+](=O)[O-]	
5.83 µM	COC(=O)C[C@H]1Oc2c(OC)cccc2[C@@H]2O[C@@]3(C(=O)N(Cc4ccccc4)c4ccccc43)[C@@H](c3ccccc3OC)[C@]12[N+](=O)[O-]	
5.34 µM	COC(=O)/C=C/Oc1ccc(OC)cc1[C@@H]1O[C@@]2(C(=O)N(Cc3ccccc3)c3ccccc32)[C@@H](c2ccc(Br)cc2)[C@@H]1[N+](=O)[O-]	
3.89 µM	COC(=O)/C=C/Oc1c(OC)cccc1[C@@H]1O[C@@]2(C(=O)N(Cc3ccccc3)c3ccccc32)[C@@H](c2ccc(Br)cc2)[C@@H]1[N+](=O)[O-]	inhibition [2]: 38.3%; inhibition [3]: 98.8%; IC50 [4]: 5.29 µM; inhibition [5]: 18.7%

Source: ChEMBL document CHEMBL4000238, “Discovery of core-structurally novel PTP1B inhibitors with specific selectivity containing oxindole-fused spirotetrahydrofurochroman by one-pot reaction” (Bioorg Med Chem Lett, 2017)
